In patent US6365626B1, “BTK inhibitors and methods for their identification and use” (Parker Hughes Institute, priority 1998, dated 2002):

Biological target: T1, BTK (Homo sapiens, UniProt Q06187)
T1 construct: expressed in transfected cells
Assay: BTK inhibition assay of second generation LFM analogs
Type: biochemical
Conditions: Table 4

T1 sequence (Q06187 2-659): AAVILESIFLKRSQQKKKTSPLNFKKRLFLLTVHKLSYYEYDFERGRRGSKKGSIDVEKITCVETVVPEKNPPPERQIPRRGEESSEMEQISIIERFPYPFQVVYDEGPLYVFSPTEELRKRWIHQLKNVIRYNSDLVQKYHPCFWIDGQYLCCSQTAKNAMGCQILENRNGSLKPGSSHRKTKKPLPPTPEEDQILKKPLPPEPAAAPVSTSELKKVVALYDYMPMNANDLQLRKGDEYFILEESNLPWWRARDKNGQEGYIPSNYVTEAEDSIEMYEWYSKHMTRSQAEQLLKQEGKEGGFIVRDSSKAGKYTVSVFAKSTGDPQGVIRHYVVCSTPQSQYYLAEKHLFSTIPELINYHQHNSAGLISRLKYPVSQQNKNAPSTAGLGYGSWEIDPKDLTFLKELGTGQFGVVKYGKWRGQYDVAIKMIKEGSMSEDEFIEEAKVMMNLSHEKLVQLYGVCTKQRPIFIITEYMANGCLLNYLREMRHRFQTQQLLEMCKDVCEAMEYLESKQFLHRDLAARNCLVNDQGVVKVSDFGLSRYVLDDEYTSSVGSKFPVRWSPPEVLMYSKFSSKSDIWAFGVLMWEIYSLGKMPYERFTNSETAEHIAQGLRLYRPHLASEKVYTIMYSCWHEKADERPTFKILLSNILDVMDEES

Q: `CC(O)=C(C#N)C(=O)Nc1ccc(Cl)cc1Cl` [LFM-A20, α-Cyano-β-hydroxy-β-methyl-N-(2,4-dichlorophenyl)propenamide] was tested. Which IC50 did it give?
A: The IC50 was 37 µM.
